From ChEMBL document CHEMBL1145312, “Structure-activity relationships of triazolopyridine oxazole p38 inhibitors: identification of candidates for clinical development” (Bioorg Med Chem Lett, 2006)

Key:
[1] = molecular target: Mitogen-activated protein kinase 14 (Homo sapiens, UniProt Q16539); experiment: Inhibition of p38alpha
Monocyte = experiment: Inhibition of LPS-induced TNFalpha production in human monocytes; type: functional, cell-based
[2] = Hepatocyte microsomal extraction ratio in human; conditions: hepatic microsomes
Homo sapiens = organism: Homo sapiens; experiment: Inhibition of LPS-induced TNFalpha production in human whole blood; type: functional, organism-based

Mitogen-activated protein kinase 14, sequence (Q16539 whole entry): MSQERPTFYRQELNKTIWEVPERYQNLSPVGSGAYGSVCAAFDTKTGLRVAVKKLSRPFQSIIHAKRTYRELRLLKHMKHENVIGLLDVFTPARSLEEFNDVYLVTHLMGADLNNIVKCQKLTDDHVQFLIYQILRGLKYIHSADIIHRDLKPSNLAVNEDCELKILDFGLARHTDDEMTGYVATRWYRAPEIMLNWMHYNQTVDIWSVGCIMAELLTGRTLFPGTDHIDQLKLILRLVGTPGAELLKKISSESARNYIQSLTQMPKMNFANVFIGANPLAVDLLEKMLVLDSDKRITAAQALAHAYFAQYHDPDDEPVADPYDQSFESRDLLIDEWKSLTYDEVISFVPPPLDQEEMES

Row | IC50 [1] [nM] | IC50 (Monocyte) [nM] | hepatic extraction ratio [2] | IC50 (Homo sapiens) [nM] | SMILES
1 | 83.3 | 490 | < 0.3 |  | CC(C)c1nnc2ccc(-c3ocnc3-c3cc(F)cc(F)c3F)cn12
2 | 5.5 | 31.6 |  |  | CC(C)Nc1nnc2ccc(-c3ocnc3-c3ccc(F)cc3)cn12
3 | 8.8 | 70 |  |  | CC(C)Cc1nnc2ccc(-c3ocnc3-c3ccc(F)cc3)cn12
4 | 14.6 | 71.1 | < 0.3 |  | CC(C)c1nnc2ccc(-c3ocnc3-c3c(F)cccc3F)cn12
5 | 11.1 | 57.4 |  |  | CC(C)c1nnc2ccc(-c3ocnc3-c3ccc(F)c(F)c3F)cn12
6 | 25 | 200 |  | 1400 | CC(C)(O)c1nnc2ccc(-c3ocnc3-c3cc(F)ccc3F)cn12
7 | 17.7 | 70 |  |  | CC(C)c1nnc2ccc(-c3ocnc3-c3ccc(Cl)cc3)cn12
8 | 198 |  |  |  | CCCNc1nnc2ccc(-c3ocnc3-c3ccc(F)cc3)cn12
9 | 11.8 | 1440 | < 0.3 |  | Fc1ccc(-c2ncoc2-c2ccc3nnc(N4CCOCC4)n3c2)cc1
10 | 1.1 | 10 |  | 77 | CC1(c2nnc3ccc(-c4ocnc4-c4ccc(F)cc4F)cn23)CCC1
11 | 26.4 | 148 |  |  | CC(C)c1nnc2ccc(-c3ocnc3-c3ccc(Cl)c(Cl)c3)cn12
12 | 1.5 | 10 |  |  | CC1(c2nnc3ccc(-c4ocnc4-c4cc(F)ccc4F)cn23)CCC1
13 | 21.6 | 630 |  |  | CCc1nnc2ccc(-c3ocnc3-c3ccc(F)cc3)cn12
14 | 9.7 | 60 |  |  | Fc1ccc(F)c(-c2ncoc2-c2ccc3nnc(C4CCC4)n3c2)c1
15 | 24.5 | 60 | < 0.3 |  | CC(C)c1nnc2ccc(-c3ocnc3-c3cc(F)c(Cl)cc3F)cn12
16 | 8 | 122 | < 0.3 |  | CC(C)c1nnc2ccc(-c3ocnc3-c3ccc(F)c(Br)c3)cn12
17 | 2.5 | 10 |  | 90 | CC1(c2nnc3ccc(-c4ocnc4-c4cc(F)c(F)cc4F)cn23)CCC1
18 | 17.9 | 470 |  |  | CC(C)Oc1nnc2ccc(-c3ocnc3-c3ccc(F)cc3)cn12
19 | 5.1 | 10 |  | 190 | CC(C)c1nnc2ccc(-c3ocnc3-c3cc(Cl)ccc3F)cn12
20 | 0.4 | 10 |  | 873 | COc1ccccc1-c1nnc2ccc(-c3ocnc3-c3ccc(F)cc3)cn12
21 | 3.5 | 45.8 |  | 910 | Fc1ccc(-c2ncoc2-c2ccc3nnc(C4CC4)n3c2)c(F)c1
22 | 544 |  |  |  | FC(F)c1nnc2ccc(-c3ocnc3-c3ccccc3)cn12
23 | 3 | 57.4 |  | 937 | CC(C)c1nnc2ccc(-c3ocnc3-c3ccccc3Cl)cn12
24 | 4.7 | 34.6 |  | 1550 | CCN(C)c1nnc2ccc(-c3ocnc3-c3ccc(F)cc3)cn12
25 | 22.3 | 49 |  |  | CC(C)c1nnc2ccc(-c3ocnc3-c3ccc(F)c(F)c3)cn12
26 | 55.5 | 360 |  |  | CCOc1nnc2ccc(-c3ocnc3-c3ccc(F)cc3)cn12
27 | 19.9 | > 1000 |  |  | Fc1ccc(-c2ncoc2-c2ccc3nnc(Cc4ccccc4)n3c2)cc1
28 | 16.6 | 69.3 |  |  | c1ccc(-c2ncoc2-c2ccc3nnc(C4CCC4)n3c2)cc1

Row | SMILES | IC50 [1] [nM] | IC50 (Monocyte) [nM] | hepatic extraction ratio [2] | IC50 (Homo sapiens) [nM]
29 | Fc1cc(F)c(-c2ncoc2-c2ccc3nnc(C4CCC4)n3c2)cc1F | 9.1 | 50 |  | 353
30 | CC(C)c1nnc2ccc(-c3ocnc3-c3ccc(Cl)c(F)c3)cn12 | 43.2 | 266 |  | 
31 | CC(C)c1nnc2ccc(-c3ocnc3-c3ccc(Cl)cc3Cl)cn12 | 8.3 | 30 | < 0.3 | 
32 | Cc1cccc(-c2ncoc2-c2ccc3nnc(C(C)C)n3c2)c1 | 18.3 | 24.5 |  | 
33 | c1ccc(-c2ncoc2-c2ccc3nnc(-c4ccno4)n3c2)cc1 | 285 | > 2000 |  | 
